Assay results reported in PubChem BioAssay AID248 (DTP/NCI, 2004).
Several values for one entry are separate records, joined by “and”; a condition that tells them apart may be missing. Equal values may be shown once. Toxic doses and inconclusive results are not listed. No stated cut-off is given here; in the data, active means T/C of 150% or more; inactive means T/C below 125%.

System: L1210 leukemia ip in BDF1 mice, survival T/C
Test: NCI In Vivo Anticancer Drug Screen. Data for tumor model L1210 Leukemia (intraperitoneal) in B6D2F1 (BDF1) mice
Details: endpoint: mean survival time, higher = longer survival
In short: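 Tumor cells were implanted, animals were treated, and survival was followed. The result divides the treated measurement by the vehicle-control measurement.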

[1] = dose: 50.0 mg/kg/injection, schedule: Q04DX002 (ip), vehicle: Klucel (hydroxypropylcellulose) (HPC)
[2] = dose: 50.0 mg/kg/injection, schedule: Q01DX009 (ip), vehicle: saline with Tween-80
[3] = dose: 100.0 mg/kg/injection, schedule: Q01DX009 (ip), vehicle: saline with Tween-80
[4] = dose: 100.0 mg/kg/injection, schedule: Q04DX003 (ip), vehicle: saline with Tween-80
[5] = dose: 200.0 mg/kg/injection, schedule: Q04DX003 (ip), vehicle: saline with Tween-80
[6] = dose: 25.0 mg/kg/injection, schedule: Q04DX003 (ip), vehicle: saline with Tween-80
[7] = dose: 400.0 mg/kg/injection, schedule: Q04DX003 (ip), vehicle: saline with Tween-80
[8] = dose: 100.0 mg/kg/injection, schedule: Q04DX003 (ip), vehicle: Klucel (hydroxypropylcellulose) (HPC)
[9] = dose: 200.0 mg/kg/injection, schedule: Q04DX003 (ip), vehicle: Klucel (hydroxypropylcellulose) (HPC)
[10] = dose: 400.0 mg/kg/injection, schedule: Q04DX003 (ip), vehicle: Klucel (hydroxypropylcellulose) (HPC)
[11] = dose: 50.0 mg/kg/injection, schedule: Q01DX009 (ip), vehicle: saline
[12] = dose: 100.0 mg/kg/injection, schedule: Q01DX009 (ip), vehicle: saline
[13] = dose: 100.0 mg/kg/injection, schedule: Q01DX001 (ip), vehicle: saline
[14] = dose: 200.0 mg/kg/injection, schedule: Q01DX001 (ip), vehicle: saline
[15] = dose: 400.0 mg/kg/injection, schedule: Q01DX001 (ip), vehicle: saline
[16] = dose: 12.5 mg/kg/injection, schedule: Q04DX003 (ip), vehicle: saline
[17] = dose: 25.0 mg/kg/injection, schedule: Q04DX003 (ip), vehicle: saline
[18] = dose: 50.0 mg/kg/injection, schedule: Q04DX003 (ip), vehicle: saline
[19] = dose: 100.0 mg/kg/injection, schedule: Q04DX003 (ip), vehicle: saline

Measured: T/C

O=C1OC2CCCCC2/C1=C/N1CCCCC1 (stereo unspecified)
inactive: dose: 5.0 mg/kg/injection, schedule: Q04DX002 (ip), vehicle: Klucel (hydroxypropylcellulose) (HPC) 92 % of control | dose: 10.0 mg/kg/injection, schedule: Q04DX002 (ip), vehicle: Klucel (hydroxypropylcellulose) (HPC) 102 % of control | dose: 20.0 mg/kg/injection, schedule: Q04DX002 (ip), vehicle: Klucel (hydroxypropylcellulose) (HPC) 107 % of control | dose: 40.0 mg/kg/injection, schedule: Q04DX002 (ip), vehicle: Klucel (hydroxypropylcellulose) (HPC) 93 % of control | [1] 103 % of control | dose: 200.0 mg/kg/injection, schedule: Q04DX002 (ip), vehicle: Klucel (hydroxypropylcellulose) (HPC) 102 % of control and 103 % of control | dose: 400.0 mg/kg/injection, schedule: Q04DX002 (ip), vehicle: Klucel (hydroxypropylcellulose) (HPC) 88 % of control

CCOC(=O)N/N=C\c1cc(OC)c(OC)c(OC)c1
inactive: [2] 103 % of control | [3] 98 % of control | [4] 102 % of control | [5] 103 % of control

O=C1C=CC(=O)N1c1ccc(F)cc1
inactive: [6] 108 % of control

Cn1ccc2cc(Br)ccc21
inactive: [4] 102 % of control | [5] 101 % of control | [7] 101 % of control

S=C(N/N=C/C=C/c1ccccc1)NC1CC2CC1C1C=CCC21 (stereo unspecified)
inactive: dose: 100.0 mg/kg/injection, schedule: Q01DX009 (ip), vehicle: Klucel (hydroxypropylcellulose) (HPC) 94 % of control | dose: 200.0 mg/kg/injection, schedule: Q01DX009 (ip), vehicle: Klucel (hydroxypropylcellulose) (HPC) 117 % of control | dose: 400.0 mg/kg/injection, schedule: Q01DX009 (ip), vehicle: Klucel (hydroxypropylcellulose) (HPC) 88 % of control

COc1cc(C2NC(=S)NC2=S)ccc1O (stereo unspecified)
inactive: dose: 25.0 mg/kg/injection, schedule: Q01DX009 (ip), vehicle: saline with Tween-80 104 % of control | [6] 94 % of control | [2] 96 % of control | dose: 50.0 mg/kg/injection, schedule: Q04DX003 (ip), vehicle: saline with Tween-80 92 % of control | [4] 94 % of control and 98 % of control

C#CCON(C(=O)Nc1ccc(Cl)cc1)C(=O)c1ccc(OC)cc1
inactive: [8] 88 % of control | [9] 86 % of control | [10] 93 % of control

Nc1ccc(S(=O)(=O)Nc2cnc3ccccc3n2)cc1
inactive: [11] 99 % of control | [12] 92 % of control | dose: 100.0 mg/kg/injection, schedule: Q04DX002 (ip), vehicle: saline 91 % of control | dose: 200.0 mg/kg/injection, schedule: Q01DX009 (ip), vehicle: saline 89 % of control | dose: 200.0 mg/kg/injection, schedule: Q04DX002 (ip), vehicle: saline 94 % of control

Cn1c(=O)c2ncn(CC(O)COc3ccccc3)c2n(C)c1=O (stereo unspecified)
inactive: [8] 102 % of control | [9] 104 % of control | [10] 101 % of control

[O-][N+](=C(c1ccccc1)c1ccccc1)c1ccccc1
inactive: [4] 101 % of control | [5] 93 % of control | [7] 90 % of control

c1ccc2cc(-c3cc4ccccc4s3)ccc2c1
inactive: [13] 106 % of control | dose: 100.0 mg/kg/injection, schedule: Q01DX009 (ip), vehicle: acetone 98 % of control | dose: 100.0 mg/kg/injection, schedule: Q04DX003 (ip), vehicle: acetone 100 % of control | [14] 103 % of control | dose: 200.0 mg/kg/injection, schedule: Q01DX009 (ip), vehicle: acetone 104 % of control | dose: 200.0 mg/kg/injection, schedule: Q04DX003 (ip), vehicle: acetone 98 % of control | dose: 264.0 mg/kg/injection, schedule: Q01DX009 (ip), vehicle: saline 110 % of control | [15] 104 % of control | dose: 400.0 mg/kg/injection, schedule: Q01DX009 (ip), vehicle: saline 115 % of control | dose: 400.0 mg/kg/injection, schedule: Q04DX003 (ip), vehicle: acetone 90 % of control

CC1=CN(C)C(=O)CC1
inactive: dose: 100.0 mg/kg/injection, schedule: Q01DX001 (ip), vehicle: acetone 96 % of control | dose: 200.0 mg/kg/injection, schedule: Q01DX001 (ip), vehicle: acetone 96 % of control | dose: 400.0 mg/kg/injection, schedule: Q01DX001 (ip), vehicle: acetone 104 % of control

Cc1[nH]c(=S)oc1C
inactive: dose: 75.0 mg/kg/injection, schedule: Q01DX001 (ip), vehicle: other 105 % of control | dose: 150.0 mg/kg/injection, schedule: Q01DX001 (ip), vehicle: other 97 % of control | dose: 300.0 mg/kg/injection, schedule: Q01DX001 (ip), vehicle: other 103 % of control

[N-]=[N+]=NC1=CC(=O)C(c2ccccc2)=CC1=O
inactive: dose: 100.0 mg/kg/injection, schedule: Q04DX002 (ip), vehicle: saline with Tween-80 102 % of control | dose: 200.0 mg/kg/injection, schedule: Q04DX002 (ip), vehicle: saline with Tween-80 97 % of control

CN(C)CCOCCOC(=O)N1c2ccccc2Sc2ccccc21
inactive: dose: 6.25 mg/kg/injection, schedule: Q01DX009 (ip), vehicle: saline 106 % of control | dose: 6.25 mg/kg/injection, schedule: Q04DX003 (ip), vehicle: saline 102 % of control | dose: 12.5 mg/kg/injection, schedule: Q01DX009 (ip), vehicle: saline 95 % of control | [16] 105 % of control | dose: 25.0 mg/kg/injection, schedule: Q01DX009 (ip), vehicle: saline 97 % of control | [17] 97 % of control and 98 % of control | [11] 88 % of control | [18] 107 % of control and 109 % of control | [12] 103 % of control | [19] 102 % of control and 109 % of control

CCCCCCCCCCCCNC(=O)C[n+]1cccc(C(=O)N(CC)CC)c1
inactive: [16] 92 % of control | [17] 97 % of control | [18] 97 % of control

CCN(CC)CCN(CC(=O)O)CC(=O)O
inactive: [13] 108 % of control and 98 % of control | [14] 90 % of control and 102 % of control | [15] 96 % of control and 102 % of control

N#CC1(N2CCC3(CC2)OCCO3)CCCCC1
inactive: dose: 12.5 mg/kg/injection, schedule: Q01DX009 (ip), vehicle: Klucel (hydroxypropylcellulose) (HPC) 101 % of control | dose: 12.5 mg/kg/injection, schedule: Q04DX003 (ip), vehicle: Klucel (hydroxypropylcellulose) (HPC) 91 % of control | dose: 25.0 mg/kg/injection, schedule: Q01DX009 (ip), vehicle: Klucel (hydroxypropylcellulose) (HPC) 95 % of control | dose: 25.0 mg/kg/injection, schedule: Q04DX002 (ip), vehicle: Klucel (hydroxypropylcellulose) (HPC) 107 % of control | dose: 25.0 mg/kg/injection, schedule: Q04DX003 (ip), vehicle: Klucel (hydroxypropylcellulose) (HPC) 100 % of control | [1] 96 % of control | dose: 100.0 mg/kg/injection, schedule: Q04DX002 (ip), vehicle: Klucel (hydroxypropylcellulose) (HPC) 95 % of control

O=S1C(c2ccccc2)CC1c1ccccc1 (stereo unspecified)
inactive: [8] 100 % of control | [9] 105 % of control | [10] 96 % of control

CC1(C)C(c2ccccc2)=NN=C1c1ccccc1
inactive: [3] 93 % of control | [4] 90 % of control | dose: 200.0 mg/kg/injection, schedule: Q01DX009 (ip), vehicle: saline with Tween-80 91 % of control | [5] 104 % of control | dose: 400.0 mg/kg/injection, schedule: Q01DX009 (ip), vehicle: saline with Tween-80 112 % of control | [7] 104 % of control

CC(Br)C1=CC(c2ccccc2)(c2ccccc2)c2ccccc21 (stereo unspecified)
inactive: [4] 90 % of control | [7] 90 % of control

Cc1nc(N)[nH]c(=O)c1CCC(=O)O
inactive: [19] 102 % of control | dose: 400.0 mg/kg/injection, schedule: Q04DX003 (ip), vehicle: saline 107 % of control

CCOC(=O)/C(=C/c1ccc(OC)c(OC)c1)P(=O)(OCC)OCC
inactive: dose: 50.0 mg/kg/injection, schedule: Q01DX001 (ip), vehicle: saline 101 % of control | [13] 95 % of control

Cc1ccc(C)n1Cc1ccccc1
inactive: dose: 100.0 mg/kg/injection, schedule: Q04DX003 (ip), vehicle: other 98 % of control | dose: 200.0 mg/kg/injection, schedule: Q04DX003 (ip), vehicle: other 98 % of control | dose: 400.0 mg/kg/injection, schedule: Q04DX003 (ip), vehicle: other 101 % of control
